Here are results for 13 molecules from ChEMBL document CHEMBL1909046, “DrugMatrix in vitro pharmacology data”.

Structures are written as SMILES.

Assay [1] can be described thus: DRUGMATRIX: Sigma2 radioligand binding (ligand: [3H] Ifenprodil). To be noted: Not Active = under 50% inhibition at 10 µM. It is filed as cell membranes, Rattus norvegicus, Wistar, Brain, Membrane.
The target in a further assay is Vasopressin V1a receptor (Homo sapiens, UniProt P37288). It is filed as cell membranes, Membrane. To be noted: hek293. Also: in other assays of this panel Not Active means under 50% inhibition at 10 µM.
Assay [2] deals with T1, Type-2 angiotensin II receptor (Homo sapiens, UniProt P50052).
T1 sequence (P50052 whole entry): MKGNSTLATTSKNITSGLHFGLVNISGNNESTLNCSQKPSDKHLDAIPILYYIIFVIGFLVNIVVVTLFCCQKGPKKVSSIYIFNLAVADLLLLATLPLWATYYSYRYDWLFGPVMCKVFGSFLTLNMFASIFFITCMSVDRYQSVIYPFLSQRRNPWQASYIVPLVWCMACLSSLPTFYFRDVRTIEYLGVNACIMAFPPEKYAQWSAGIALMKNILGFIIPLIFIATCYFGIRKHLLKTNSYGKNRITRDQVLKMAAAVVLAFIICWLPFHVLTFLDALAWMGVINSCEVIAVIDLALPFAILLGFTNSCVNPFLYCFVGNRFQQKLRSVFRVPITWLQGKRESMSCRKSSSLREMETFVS
The assay is classed as cell-based. To be noted: cho-k1.

Assay [3] has as its target T2, Receptor-type tyrosine-protein phosphatase C (Homo sapiens, UniProt P08575).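 Also: inhibition of CD45 enzyme activity measured using DiFMUP as substrate; in other assays of this panel Not Active means under 50% inhibition at 10 µM.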
T2 sequence (P08575 whole entry): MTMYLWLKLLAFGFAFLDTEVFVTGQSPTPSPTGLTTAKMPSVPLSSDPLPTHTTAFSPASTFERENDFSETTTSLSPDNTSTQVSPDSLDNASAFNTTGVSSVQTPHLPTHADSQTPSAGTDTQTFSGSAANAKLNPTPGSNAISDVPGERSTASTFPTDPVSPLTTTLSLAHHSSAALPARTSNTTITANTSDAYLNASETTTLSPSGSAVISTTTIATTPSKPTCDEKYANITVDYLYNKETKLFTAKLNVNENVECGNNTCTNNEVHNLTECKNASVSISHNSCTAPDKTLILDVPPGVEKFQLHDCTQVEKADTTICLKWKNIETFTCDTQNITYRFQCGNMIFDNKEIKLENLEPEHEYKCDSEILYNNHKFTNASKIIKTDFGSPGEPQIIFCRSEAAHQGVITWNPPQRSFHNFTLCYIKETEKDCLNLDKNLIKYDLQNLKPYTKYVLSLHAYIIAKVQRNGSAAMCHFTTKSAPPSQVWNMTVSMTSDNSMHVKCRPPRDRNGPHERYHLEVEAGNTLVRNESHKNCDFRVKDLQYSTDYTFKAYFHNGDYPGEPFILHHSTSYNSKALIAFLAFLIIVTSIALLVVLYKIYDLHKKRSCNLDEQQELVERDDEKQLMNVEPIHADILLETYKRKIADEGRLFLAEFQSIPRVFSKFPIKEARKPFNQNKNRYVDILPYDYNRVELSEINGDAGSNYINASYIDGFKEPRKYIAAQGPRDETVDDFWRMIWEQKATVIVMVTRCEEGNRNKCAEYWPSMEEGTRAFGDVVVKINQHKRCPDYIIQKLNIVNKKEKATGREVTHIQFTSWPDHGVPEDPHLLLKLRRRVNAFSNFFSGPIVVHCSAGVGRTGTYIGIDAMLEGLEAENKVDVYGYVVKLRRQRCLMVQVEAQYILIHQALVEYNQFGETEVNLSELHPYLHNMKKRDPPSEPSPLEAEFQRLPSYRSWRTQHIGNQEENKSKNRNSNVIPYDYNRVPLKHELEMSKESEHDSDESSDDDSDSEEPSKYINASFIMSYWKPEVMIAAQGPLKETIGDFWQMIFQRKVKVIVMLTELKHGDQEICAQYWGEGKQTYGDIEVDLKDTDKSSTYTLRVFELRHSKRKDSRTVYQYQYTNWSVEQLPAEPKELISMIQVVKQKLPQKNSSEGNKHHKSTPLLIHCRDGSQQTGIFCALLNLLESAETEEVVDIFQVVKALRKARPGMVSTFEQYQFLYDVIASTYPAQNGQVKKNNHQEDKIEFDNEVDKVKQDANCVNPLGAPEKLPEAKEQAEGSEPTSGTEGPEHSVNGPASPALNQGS
Further details: species or system Escherichia coli.

The nature of assay [4]: DRUGMATRIX: ATPase, Na+/K+ enzyme inhibition (substrate: ATP). It is filed as tissue-based, Sus scrofa, Heart. The conditions noted are these: Not Active = under 50% inhibition at 10 µM.
The target of another assay is T3, Adenosine receptor A3 (Homo sapiens, UniProt P0DMS8).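 Also: radioligand binding assay with AB-MECA serving as the labeled ligand; in other assays of this panel Not Active means under 50% inhibition at 10 µM.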
T3 sequence (P0DMS8 whole entry): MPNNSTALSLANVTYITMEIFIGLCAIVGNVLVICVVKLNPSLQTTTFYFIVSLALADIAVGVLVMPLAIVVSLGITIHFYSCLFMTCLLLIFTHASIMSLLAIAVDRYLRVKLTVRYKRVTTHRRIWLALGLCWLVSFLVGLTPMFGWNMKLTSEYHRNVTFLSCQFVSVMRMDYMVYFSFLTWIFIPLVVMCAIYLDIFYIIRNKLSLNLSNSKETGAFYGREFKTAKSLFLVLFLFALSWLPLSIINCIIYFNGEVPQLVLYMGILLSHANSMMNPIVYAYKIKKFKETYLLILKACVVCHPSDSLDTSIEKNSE
The assay is classed as cell membranes, CHO-K1, Membrane.

The target in assay [5] is Kappa-type opioid receptor (Homo sapiens, UniProt P41145). Kind of assay: DRUGMATRIX: Opiate kappa (OP2, KOP) radioligand binding (ligand: [3H] Diprenorphine). It is filed as cell membranes, HEK293, Membrane. The conditions noted are these: hek293; Not Active = under 50% inhibition at 10 µM.
Kappa-type opioid receptor, sequence (P41145 whole entry): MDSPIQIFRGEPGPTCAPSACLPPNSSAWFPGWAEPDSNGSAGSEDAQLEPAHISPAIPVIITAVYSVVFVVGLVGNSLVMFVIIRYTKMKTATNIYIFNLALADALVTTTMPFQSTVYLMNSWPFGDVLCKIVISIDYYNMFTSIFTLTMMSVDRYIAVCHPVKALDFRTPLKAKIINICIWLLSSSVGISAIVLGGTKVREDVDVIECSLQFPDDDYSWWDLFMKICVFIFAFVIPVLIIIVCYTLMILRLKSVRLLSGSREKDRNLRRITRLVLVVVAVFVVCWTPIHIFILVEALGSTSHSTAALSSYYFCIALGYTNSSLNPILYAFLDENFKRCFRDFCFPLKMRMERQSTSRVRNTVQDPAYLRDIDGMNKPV

Vasopressin V1a receptor, sequence (P37288 whole entry): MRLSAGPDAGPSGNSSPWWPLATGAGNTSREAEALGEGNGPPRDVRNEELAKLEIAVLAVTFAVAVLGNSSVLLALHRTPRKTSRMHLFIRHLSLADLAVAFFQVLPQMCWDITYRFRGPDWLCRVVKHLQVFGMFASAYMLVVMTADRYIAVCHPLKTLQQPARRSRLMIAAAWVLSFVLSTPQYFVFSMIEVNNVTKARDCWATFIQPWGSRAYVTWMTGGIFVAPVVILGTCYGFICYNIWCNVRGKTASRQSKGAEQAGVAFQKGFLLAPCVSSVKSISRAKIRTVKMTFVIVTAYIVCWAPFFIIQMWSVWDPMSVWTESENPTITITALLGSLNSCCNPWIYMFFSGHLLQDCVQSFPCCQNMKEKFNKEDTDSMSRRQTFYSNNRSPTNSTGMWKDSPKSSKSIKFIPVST

For `C[N+](C)(C)CCOP(=O)([O-])OC[C@H](O)CO`, the IC50 entry (in assay [1]; on Vasopressin V1a receptor; in assay [2]; in assay [3]; in assay [4]; at Adenosine receptor A3 (cho-k1)) was “Not Active” in each case. In addition, the IC50 (usually the concentration needed to halve the response being measured) in assay [5] is “Not Active”. Besides, the inhibitory constant (Ki) result in assay [1] and in assay [4] was “Not Active” in each case.
Take `NC(=O)CN1CCCC1=O`: the IC50 entry (in assay [1]; against Vasopressin V1a receptor; in assay [2]; in assay [3]; in assay [4]; on Adenosine receptor A3 (cho-k1)) was “Not Active” throughout. The IC50 result in assay [5] is reported as “Not Active”. The Ki result in assay [1] and in assay [4] was “Not Active” each time.
For the molecule `OC[C@H]1OC2C3[C@@H](CO)OC(O[C@H]4[C@H](O)[C@@H](O)[C@@H](O[C@H]5[C@H](O)[C@@H](O)[C@@H](O[C@H]6[C@H](O)[C@@H](O)[C@@H](O[C@H]7[C@H](O)[C@@H](O)[C@@H](O[C@H]8[C@H](O)[C@@H](O)[C@@H](O[C@H]9[C@H](O)[C@@H](O)C(OC1[C@H](O)[C@H]2O)O[C@@H]9CO)O[C@@H]8CO)O[C@@H]7CO)O[C@@H]6CO)O[C@@H]5CO)O[C@@H]4CO)[C@H](O)[C@H]3O`, the half-maximal inhibitory concentration (IC50) entry (in assay [1]; against Vasopressin V1a receptor; in assay [2]; in assay [3]; in assay [4]; against Adenosine receptor A3 (cho-k1)) was “Not Active” throughout. For the same molecule, the IC50 entry in assay [5] was “Not Active”. Besides, the Ki entry in assay [1] and in assay [4] was “Not Active” throughout.
In the case of `CN(CCOc1ccc(C[C@H](Nc2ccccc2C(=O)c2ccccc2)C(=O)O)cc1)c1ccccn1`, the IC50 entry in assay [1] was “Not Active”; on Vasopressin V1a receptor it was “Not Active”; in assay [2], “Not Active”; in assay [3] it was “Not Active”; in assay [4], “Not Active”; on Adenosine receptor A3 (read-out: IC50), 14.3 µM. Also, in assay [5], the IC50 entry is “Not Active”. The Ki (in general, a measure of affinity in units of concentration, obtained from inhibition or displacement) in assay [1] was “Not Active”; in assay [4], “Not Active”; on Adenosine receptor A3 (read-out: Ki), 8.09 µM.
As for `CC(=O)Nc1ccc2c(c1)Cc1ccccc1-2` [2-ACETYLAMINOFLUORENE], the IC50 entry (in assay [1]; at Vasopressin V1a receptor; in assay [2]; in assay [3]; in assay [4]; against Adenosine receptor A3 (cho-k1)) was “Not Active” throughout. For the same molecule, the IC50 result in assay [5] is on record as “Not Active”. Besides, the inhibition constant Ki entry in assay [1] and in assay [4] was “Not Active” throughout.
Regarding `O=C(Nc1ccc(Cl)c(Cl)c1)c1cc(Cl)cc(Cl)c1O` [3,3',4',5-TETRACHLOROSALICYLANILIDE], the IC50 entry (in assay [1]; against Vasopressin V1a receptor; in assay [2]; in assay [3]; in assay [4]; against Adenosine receptor A3 (cho-k1)) was “Not Active” throughout. The half-inhibitory concentration (IC50) result in assay [5] is recorded as “Not Active”. For the same molecule, the Ki entry in assay [1] and in assay [4] was “Not Active” each time.
On to `O=C(O)COC(=O)Cc1ccccc1Nc1c(Cl)cccc1Cl` [ACECLOFENAC], for which the IC50 result (in assay [1]; at Vasopressin V1a receptor; in assay [2]; in assay [3]; in assay [4]; at Adenosine receptor A3 (cho-k1)) was “Not Active” each time. For the same molecule, in assay [5], the IC50 result is given as “Not Active”. The Ki entry in assay [1] and in assay [4] was “Not Active” each time.
Turning to `CCO` [ALCOHOL], the IC50 result (in assay [1]; on Vasopressin V1a receptor; in assay [2]; in assay [3]; in assay [4]; against Adenosine receptor A3 (cho-k1)) was “Not Active” throughout. Also, the IC50 entry in assay [5] was “Not Active”. For the same molecule, the Ki entry in assay [1] and in assay [4] was “Not Active” in each case.
With `OC[C@H]1O[C@@H]2O[C@H]3[C@H](O)[C@@H](O)[C@@H](O[C@H]4[C@H](O)[C@@H](O)[C@@H](O[C@H]5[C@H](O)[C@@H](O)[C@@H](O[C@H]6[C@H](O)[C@@H](O)[C@@H](O[C@H]7[C@H](O)[C@@H](O)[C@@H](O[C@H]1[C@H](O)[C@H]2O)O[C@@H]7CO)O[C@@H]6CO)O[C@@H]5CO)O[C@@H]4CO)O[C@@H]3CO` [ALFADEX], the IC50 result (in assay [1]; against Vasopressin V1a receptor; in assay [2]; in assay [3]; in assay [4]; on Adenosine receptor A3 (cho-k1)) was “Not Active” throughout. Also, in assay [5], the 50% inhibitory concentration (IC50) entry is on record as “Not Active”. Besides, the Ki entry in assay [1] and in assay [4] was “Not Active” each time.
For `Oc1ncnc2[nH]ncc12` [ALLOPURINOL], the IC50 result (in assay [1]; against Vasopressin V1a receptor; in assay [2]; in assay [3]; in assay [4]; against Adenosine receptor A3 (cho-k1)) was “Not Active” in each case. In assay [5], the IC50 result is “Not Active”. Also, the Ki entry in assay [1] and in assay [4] was “Not Active” throughout.
As for `Nc1nc(N)c2nc(CNc3ccc(C(=O)N[C@@H](CCC(=O)O)C(=O)O)cc3)cnc2n1` [AMINOPTERIN], the IC50 entry (in assay [1]; on Vasopressin V1a receptor; in assay [2]; in assay [3]; in assay [4]; against Adenosine receptor A3 (cho-k1)) was “Not Active” each time. In addition, the half-maximal inhibitory concentration (IC50) entry in assay [5] is listed as “Not Active”. Moreover, the Ki result in assay [1] and in assay [4] was “Not Active” throughout.
As to `Nc1ccc(C(=O)O)c(O)c1` [AMINOSALICYLIC ACID], the IC50 entry (in assay [1]; against Vasopressin V1a receptor; in assay [2]; in assay [3]; in assay [4]; against Adenosine receptor A3 (cho-k1)) was “Not Active” in each case. Moreover, the IC50 entry in assay [5] was “Not Active”. For the same molecule, the Ki result in assay [1] and in assay [4] was “Not Active” each time.
`C[C@@H]1[C@H](O)[C@@H](C)/C=C/C=C/C=C/C=C/C=C/C=C/C=C/[C@H](O[C@@H]2O[C@H](C)[C@@H](O)[C@H](N)[C@@H]2O)C[C@@H]2O[C@](O)(C[C@@H](O)C[C@@H](O)[C@H](O)CC[C@@H](O)C[C@@H](O)CC(=O)O[C@H]1C)C[C@H](O)[C@H]2C(=O)O` [AMPHOTERICIN B]: the half-maximal inhibitory concentration (IC50) result (in assay [1]; at Vasopressin V1a receptor; in assay [2]; in assay [3]; in assay [4]; on Adenosine receptor A3 (cho-k1)) was “Not Active” in each case. Moreover, the IC50 entry in assay [5] was “Not Active”. Also, the Ki result in assay [1] and in assay [4] was “Not Active” each time.
